For data set [1], the system named is Mus musculus. Description: Antiinflammatory activity in LPS-induced C57BL/6 mouse model of lung inflammation assessed as reduction in NF-kappaB activation at 10 mg/kg, ip administered 1 hr prior to LPS-challenge measured after 3 hrs by electrophoretic mobility shift assay. In kind it is functional, organism-based. A general note: Mobility shift assays separate free from complexed probe on a gel.

Data set [2] concerns Mus musculus. The data set can be described thus: Antiinflammatory activity in LPS-induced C57BL/6 mouse model of lung inflammation assessed as reduction in keratinocyte-derived chemokine release in bronchoalveolar lavage fluid at 10 mg/kg, ip administered 1 hr prior to LPS-challenge measured after 3 hrs by ELISA. In kind it is functional, organism-based. (In general: In an ELISA, binding on a coated surface is turned into a signal by an enzyme label.)

Data set [3] concerns Mus musculus. Description: Antiinflammatory activity in LPS-induced C57BL/6 mouse model of lung inflammation assessed as reduction in TNF-alpha release in bronchoalveolar lavage fluid at 10 mg/kg, ip administered 1 hr prior to LPS-challenge measured after 3 hrs by ELISA. In kind it is functional, organism-based.
Another data set relates to PBMC. The data set can be described thus: Inhibition of LPS-induced TNF-alpha production in human PBMC at 1 to 100 uM administered prior to LPS-challenge measured after 2 hrs by ELISA. In kind it is functional, cell-based.
In data set [4] the test system is Mus musculus. The data set can be described thus: Toxicity in LPS-induced C57BL/6 mouse model of lung inflammation assessed as change in liver weight at 1 to 100 mg/kg, ip administered 1 hr prior to LPS-challenge measured after 3 hrs relative to control. The following applies: in vivo. In kind it is organism-based.
The test system of data set [5] is Mus musculus. The data set can be described thus: Antiinflammatory activity in LPS-induced C57BL/6 mouse model of lung inflammation assessed as decrease in neutrophil infiltration in bronchoalveolar lavage fluid at 100 mg/kg, ip administered 1 hr prior to LPS-challenge measured after 3 hrs by Diff-Quik staining-based coulter particle counter method relative to vehicle-treated control. In kind it is functional. Conditions: C57BL/6, ip.

Data set [6] has as its system Mus musculus. Description: Toxicity in LPS-induced C57BL/6 mouse model of lung inflammation assessed as change in spleen weight at 1 to 100 mg/kg, ip administered 1 hr prior to LPS-challenge measured after 3 hrs relative to control. Conditions: in vivo. In kind it is organism-based.
Data set [7] deals with Mus musculus. Description: Antiinflammatory activity in LPS-induced C57BL/6 mouse model of lung inflammation assessed as decrease in neutrophil infiltration in bronchoalveolar lavage fluid at 1 to 10 mg/kg, ip administered 1 hr prior to LPS-challenge measured after 3 hrs by Diff-Quik staining-based coulter particle counter method. In kind it is functional, organism-based.

Data set [8] concerns Mus musculus. The data set can be described thus: Toxicity in LPS-induced C57BL/6 mouse model of lung inflammation assessed as change in spleen weight at 10 mg/kg, ip administered 1 hr prior to LPS-challenge measured after 3 hrs relative to control. In kind it is organism-based. Conditions: in vivo.
Data set [9] concerns Mus musculus. Description: Antiinflammatory activity in LPS-induced C57BL/6 mouse model of lung inflammation assessed as decrease in neutrophil infiltration in bronchoalveolar lavage fluid at 10 mg/kg, ip administered 1 hr prior to LPS-challenge measured after 3 hrs by Diff-Quik staining-based coulter particle counter method. In kind it is functional, organism-based.
Data set [10] relates to Mus musculus. Description: Toxicity in LPS-induced C57BL/6 mouse model of lung inflammation assessed as change in liver weight at 10 mg/kg, ip administered 1 hr prior to LPS-challenge measured after 3 hrs relative to control. In kind it is organism-based. The following applies: in vivo.

Active and inactive are the calls of the source. No cut-off for these calls is given here.

Turning to `CC(=O)Oc1ccccc1C(=O)O`, the result in the data set with Mus musculus [1], with Mus musculus [2] and in the data set on Mus musculus [3] was Active.
`CC(C)=CCC1=C(O)C(=O)c2ccccc2C1=O`: in the data set with PBMC, the inhibition entry is “inactive”.
Regarding `O=C1C2=C(C(=O)c3ccccc31)C1Oc3ccccc3C1CO2` (racemic), the Activity result with Mus musculus [4] and with Mus musculus [6] was “Non-toxic” in each case. For the same molecule, the inhibition in vivo at 100 mg/kg in the data set with Mus musculus [5] turned out to be 90%. Further, the outcome in the data set with Mus musculus [1], in the data set with Mus musculus [3] and in the data set with Mus musculus [7] was Active. The result with Mus musculus [2] was inactive.
Regarding `C[C@@H]1C[C@H]2[C@@H]3CCC4=CC(=O)C=C[C@]4(C)[C@@]3(F)[C@@H](O)C[C@]2(C)[C@@]1(O)C(=O)CO` [DEXAMETHASONE], the Activity entry with Mus musculus [8] and in the data set on Mus musculus [10] was “Toxic” in each case. Besides, the outcome with Mus musculus [9], in the data set with Mus musculus [2] and with Mus musculus [3] was Active.

By inhibition in vivo is commonly meant the drop in the measured response relative to a control, in per cent.

The values above are taken from ChEMBL document CHEMBL3826917, “Anti-inflammatory properties of pterocarpanquinone LQB-118 in mice” (Bioorg Med Chem, 2016).
